Assay [1] can be described thus: ApoB secretion inhibition in hepatoma cells – cell-based, HepG2, ELISA, plate reader, cherry-pick, orthogonal assay for Trib1 inducer project, dose response (AID 1053151). The conditions noted are these: HepG2 secreted ApoB ELISA, 24 h, ApoB inhibition at active concentration, stronger effect = higher value.
Assay [2] concerns HepG2 secreted ApoB ELISA, 24 h. Described as above.

Broadly, the inhibition is the percentage by which the read-out fell short of the control. In the case of `CN1C(=O)c2cc(NC(=O)c3ccc(C(F)(F)F)cc3)ccc2OC[C@@H]2O[C@@H](CC(=O)NC3Cc4ccccc4C3)CC[C@@H]21`, the inhibition in assay [1] (at 3.5 µM) turned out to be 90%. Moreover, the active concentration (lower = more potent) in assay [2] was 3500 nM.
In turn, `CN1C(=O)c2cc(NC(=O)c3ccc(C(F)(F)F)cc3)ccc2OC[C@@H]2O[C@H](CC(=O)NC3Cc4ccccc4C3)CC[C@@H]21` displayed an inhibition in assay [1] (at 0.02 µM) of 99%. The active concentration (lower = more potent) in assay [2] was 20 nM.

Values taken from PubChem BioAssay AID1053151 (Broad Institute, 2014).
